{
  "source": "patent US5869609A",
  "about": "“G protein coupled glutamate receptors” (priority 1995, dated 1999)",
  "key": {"[1]": {"molecular_target": "T1, GluG R encoded by clone 45-A (Rattus norvegicus, UniProt P23385)", "T1 construct": "expressed in transfected cells; host or cells: Xenopus oocytes injected with RNA transcribed in vitro from clone 45-A", "T1 sequence (P23385 19-1199)": "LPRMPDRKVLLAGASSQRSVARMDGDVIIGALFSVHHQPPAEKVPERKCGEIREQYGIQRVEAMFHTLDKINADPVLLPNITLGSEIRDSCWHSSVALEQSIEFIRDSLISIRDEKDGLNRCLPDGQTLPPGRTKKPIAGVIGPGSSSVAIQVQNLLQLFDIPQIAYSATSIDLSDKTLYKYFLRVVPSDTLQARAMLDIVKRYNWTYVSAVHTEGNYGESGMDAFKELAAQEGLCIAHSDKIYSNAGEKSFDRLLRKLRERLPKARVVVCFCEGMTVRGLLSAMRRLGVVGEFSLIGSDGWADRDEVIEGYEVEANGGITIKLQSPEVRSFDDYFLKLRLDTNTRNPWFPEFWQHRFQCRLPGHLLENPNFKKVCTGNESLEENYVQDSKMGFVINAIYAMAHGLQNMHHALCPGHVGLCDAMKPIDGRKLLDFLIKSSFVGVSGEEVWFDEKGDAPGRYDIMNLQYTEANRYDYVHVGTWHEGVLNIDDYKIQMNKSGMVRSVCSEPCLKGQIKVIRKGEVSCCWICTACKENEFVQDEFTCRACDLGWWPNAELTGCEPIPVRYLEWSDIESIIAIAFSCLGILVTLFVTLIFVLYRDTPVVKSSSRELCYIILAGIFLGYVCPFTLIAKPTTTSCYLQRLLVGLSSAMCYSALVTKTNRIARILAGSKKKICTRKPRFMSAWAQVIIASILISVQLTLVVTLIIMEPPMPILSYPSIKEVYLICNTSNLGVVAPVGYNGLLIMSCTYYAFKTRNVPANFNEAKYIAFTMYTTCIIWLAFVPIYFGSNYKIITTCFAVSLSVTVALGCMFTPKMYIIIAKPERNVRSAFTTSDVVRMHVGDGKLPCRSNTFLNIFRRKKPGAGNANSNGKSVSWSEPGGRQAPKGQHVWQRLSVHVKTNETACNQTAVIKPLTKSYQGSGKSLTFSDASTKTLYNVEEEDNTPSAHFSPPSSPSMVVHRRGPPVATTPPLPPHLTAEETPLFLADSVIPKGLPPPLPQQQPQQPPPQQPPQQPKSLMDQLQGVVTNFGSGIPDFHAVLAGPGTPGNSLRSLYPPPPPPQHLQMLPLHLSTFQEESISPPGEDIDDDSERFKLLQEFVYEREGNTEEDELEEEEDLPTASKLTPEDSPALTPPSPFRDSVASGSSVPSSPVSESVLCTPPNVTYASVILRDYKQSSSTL", "test": "Voltage clamp assay of inhibition of glutamic acid-evoked current in injected oocytes", "format": "cell-based", "conditions": "1 mM DL-AP3; 10 μM glutamic acid; read-out: current evoked by 10 μM glutamic acid, % of the control", "protocol": "Voltage clamp assays were also carried out on injected oocytes to measure the inhibition by the putative glutamate G protein coupled receptor antagonist, 2-amino-3-phosphonopropionic acid (AP3)."}, "[2]": {"molecular_target": "T1, GluG R encoded by clone 45-A", "format": "cell-based"}, "[3]": {"test_system": "rat G protein coupled glutamate receptor", "test": "Competition of quisqualate with tritiated glutamic acid on membranes of transfected BHK cells", "format": "binding", "conditions": "membranes of BHK 570 and BHK TK^- ts13 clones", "protocol": "Transfected cell lines expressing GluG R were identified by the binding of ^3 H-glutamate to membrane preparations from transfected cells. Cell lines expressing low to moderate levels of GluG R are used to set up functional screening assays.\nClones of BHK 570 and BHK TK^- ts13 cells expressing the rat G protein coupled glutamate receptor cDNA were plated in two or three 150 mm maxi-plates culture dishes and were grown to confluency. The cells from each plate were scraped in 5 ml of PBS (phosphate buffered saline, Sigma Chemical Co., St. Louis, Mo.), which was pre-chilled to 4° C. The cells were removed to a chilled centrifuged tube, and the plates were each rinsed with 5 ml of chilled PBS and pooled with the cells. The chilled tubes were spun at 1,000 rpm for two minutes, and the supernatant was discarded. The cells were frozen at either -70° C. or on dry ice. In some cases, the cells were left overnight at -70° C. […] The filters were dried in a microwave oven and counted in a […].\nProtein determinations were carried out using a Coomassie Blue-based assay from Pierce Chemical Company (Rockford, Ill.) under conditions set forth by the manufacturer. One hundred microliters of undiluted cell homogenate or BSA standard was added to 2 ml of reagent and the optical density was measured at 595 nm. […]"}, "[4]": {"test_system": "GluG R", "test": "Voltage-clamp recording of oocytes injected with RNA from positive pools of the cerebellum library", "format": "cell-based, rat", "conditions": "oocyte injected with RNA from subfractionated pool of 14,000 colonies, approximately 100 ng RNA", "protocol": "Plasmid DNA prepared from each of the 10 pools of 100,000 clones, which in total represented one sublibrary of one million clones of the cerebellum cDNA library, was purified by cesium chloride gradient ultracentrifugation. The DNA was transcribed in vitro with T7 RNA polymerase (Pharmacia) in the presence of capped nucleotide (GpppG, Pharamcia). […] The transcription reaction tubes were set up by adding 12 μl of 5× transcription buffer (Stratagene Cloning Systems, La Jolla, Calif.), 3 μl each of 10 mM ATP, CTP, GTP, and UTP, 6 μl of 10 mM GpppG (Pharmacia), 6 μl of 1 mg/ml BSA, 3 μl of 200 mM DTT, 1.5 μl of 40 U/μl RNasin (ProMega Biotech, Madison, Wis.), 8.5 μl of water, 10 μl of cDNA containing 5 to 10 μg DNA, and 1 μl of 70 U/μl T7 RNA polymerase. […] Forty microliters of water was added to the radiolabeled reactions, and 1 μl was removed from each sample and counted to determine total counts. […] The samples were centrifuged to collect the RNA and the RNA pellets were counted to determine the counts incorporated into RNA. […]\nThe RNA from each of the 10 sublibraries were injected into oocytes as described above and translation was allowed for four days. Expression of GluG R activity was assessed by voltage-clamp assay as described above. […]"}, "[5]": {"conditions": "100 μM, saturating concentration"}},
  "note": "Where two headings read alike, the source gives them in different places.",
  "data": [
    {"molecule": "NC(CP(=O)(O)O)C(=O)O", "note": "(racemic) [DL-AP3, 2-amino-3-phosphonopropionic acid]", "values": [
      {"measurement": "remaining activity at 1000 µM", "setting": "[1]", "result": "59.3 ± 7.3", "unit": "%"}
    ]},
    {"molecule": "Cc1onc(O)c1CC(N)C(=O)O", "note": "(stereo not drawn) [AMPA, α-amino-3-hydroxy-5-methyl-isoxazole-4-propionic acid]", "values": [
      {"measurement": "response relative to 100 μM L-glutamate", "setting": "[2]; [5]", "result": "ineffective"}
    ]},
    {"molecule": "NC(CCP(=O)(O)O)C(=O)O", "note": "(centres unmarked) [APB, 2-amino-4-phosphonobytyric acid]", "values": [
      {"measurement": "response relative to 100 μM L-glutamate", "setting": "[2]; [5]", "result": "ineffective"}
    ]},
    {"molecule": "CN[C@H](CC(=O)O)C(=O)O", "note": "[NMDA, N-methyl-D-aspartic acid]", "values": [
      {"measurement": "response relative to 100 μM L-glutamate", "setting": "[2]; 100 μM NMDA+10 μM glycine", "result": "ineffective"}
    ]},
    {"molecule": "N[C@@H](Cn1oc(=O)[nH]c1=O)C(=O)O", "note": "[Quisqualic acid, quisqualic acid]", "values": [
      {"measurement": "competitive binding to the glutamate receptor expressed by transfected BHK cells", "setting": "[3]", "result": "able to competitively bind"},
      {"measurement": "actual peak current in response to quisqualate (estimated from a digital panel meter)", "setting": "[4]", "result": "approximately 1300 nA"}
    ]},
    {"molecule": "N[C@@H](CC(=O)O)C(=O)O", "note": "[aspartic acid]", "values": [
      {"measurement": "response relative to 100 μM L-glutamate", "setting": "[2]; 1 mM, saturating concentration", "result": "ineffective"}
    ]},
    {"molecule": "C=C(C)[C@H]1CN[C@H](C(=O)O)[C@H]1CC(=O)O", "note": "[kainic acid]", "values": [
      {"measurement": "response relative to 100 μM L-glutamate", "setting": "[2]; 1 mM, saturating concentration", "result": "ineffective"}
    ]}
  ]
}
